Data taken from patent publication US6906083B2 (dated 2005).

Row | Structure (SMILES) | melting point
1 | COc1cc2c(cc1OC)C(=O)C(F)(CC1CCNCC1)C2.Cl (stereo not drawn) | > 240 °C (dec.)
2 | COc1cc2c(cc1OC)C(=O)C(F)(CC1CCN(CC(C)C)CC1)C2.Cl (stereo not drawn) | 220 to 225 °C (dec.)
3 | COc1cc2c(cc1OC)C(=O)C(F)(CC1CCN(C)CC1)C2.Cl (stereo not drawn) | 215 to 220 °C (dec.)
